# Laboratory results: PMC2653189 (PLoS ONE, 2009)
# Like-named read-outs stand apart in the source and are kept apart here.
# Experiments:
# [1] = system: IL-6-mediated Stat3 nuclear translocation (GFP-Stat3α); assay: HTFM nuclear translocation assay in MEF/GFP-Stat3α cells; assay type: cell-based, murine
# Method: Confocal and high-throughput fluorescence microscopy (HTFM) of MEF/GFP-Stat3α cells were performed as described. Briefly, for confocal fluorescence microscopy, cells were grown in 6-well plates containing a cover slip. For HTFM, cells were seeded into 96-well CC3 plates at a density of 5,000 cells/well using an automated plating system. Cells were cultured under standard conditions until 85–90% confluent. Cells were pre-treated with compound for 1 hour at 37°C then stimulated with IL-6 (200 ng/ml) and IL-6sR (250 ng/ml) for 30 minutes to provide optimal Stat3 activation and nuclear translocation in these cells, as described. Cells were fixed with 4% formaldehyde in PEM Buffer (80 mM Potassium PIPES, pH 6.8, 5 mM EGTA pH 7.0, 2 mM MgCl2) for 30 minutes at 4°C, quenched in 1 mg/ml of NaBH4 (Sigma) in PEM buffer and counterstained for 1 min in 4,6-diamidino-2-phenylindole (DAPI; Sigma; 1 mg/ml) in PEM buffer. Cover slips were examined by confocal fluorescent microscopy. Plates were analyzed by automated HTFM using the Cell Lab IC Image Cytometer (IC100) platform and Cytoshop Version 2.1 analysis software (Beckman Coulter). Nuclear translocation is quantified by using the fraction localized in the nucleus (FLIN) measurement. FLIN values were normalized by subtracting the FLIN for unstimulated cells then dividing this difference by the maximum difference (delta, Δ) in FLIN (FLIN in cells stimulated with IL-6/sIL-6R in the absence of compound minus FLIN of unstimulated cells). This ratio was multiplied by 100 to obtain the percentage of maximum difference in FLIN and was plotted, where indicated, as a function of the log compound concentration. The best-fitting curve and IC50 value were determined using 4-Parameter Logistic Model/Dose Response/XLfit 4.2, IDBS software.
# Figure 4 Inhibition of cytoplasmic-to-nuclear translocation of Stat3 assessed by confocal and high-throughput fluorescence microscopy (HTFM). […] Coverslips were examined by confocal fluorescent microscopy using filters to detect GFP (column one), DAPI (column two) or both (merge; column three). In panel B, MEF-GFP-Stat3 cells were grown in 96-well plates with optical glass bottoms and pre-treated with the indicated compound at the indicated concentrations in quadruplicate for 1 hour then stimulated with IL-6 (200 ng/ml) and IL-6sR (250 ng/ml) for 30 minutes. Cells were fixed and the plates were examined by high-throughput microscopy to determine the fluorescence intensity in the nucleus (FLIN). The percent of maximum change (delta, Δ) in FLIN was calculated as described in the Methods and plotted as a function of the log of the compound concentration. […] Best-fit curves were determined using 4-Parameter Logistic Model/Dose Response/XLfit 4.2, IDBS software and were used to calculate the IC50 values (Table 2).
# [2] = system: IFN-γ-mediated Stat1 phosphorylation; assay: Immunoblot of IFN-γ-mediated Stat1 phosphorylation in HepG2 cells; assay type: cell-based, human; conditions: compound 300 µM 1 hour, IFN-γ 30 ng/ml 30 min
# Method: (§1) The human hepatocellular carcinoma cell line (HepG2) was grown in 6-well plates under standard conditions. Cells were pretreated with compounds (0, 1, 3, 10, 30, 100 and 300 µM) for 1 hour then stimulated under optimal conditions with either interleukin-6 (IL-6; 30 ng/ml for 30 min) to activate Stat3 or interferon gamma (IFN-γ; 30 ng/ml for 30 min) to activate Stat1 [28]. Cultures were then harvested and proteins extracted using high-salt buffer, as described. Briefly, extracts were mixed with 2× sodium dodecyl sulfate (SDS) sample buffer (125 mM Tris-HCL pH 6.8; 4% SDS; 20% glycerol; 10% 2-mercaptoethanol) at a 1∶1 ratio and heated for 5 minutes at 100°C. Proteins (20 µg) were separated by 7.5% SDS-PAGE and transferred to polyvinylidene fluoride (PVDF) membrane (Millipore, Waltham, MA) and immunoblotted. Prestained molecular weight markers (BioRad; Hercules, CA) were included in each gel. Membranes were probed serially with antibody against Stat1 pY701 or Stat3 pY705 followed by antibody against Stat1 or Stat3 (Transduction labs, Lexington, KY) then antibody against β–actin (Abcam, Cambridge, MA). Membranes were stripped between antibody probing using Restore™ Western Blot Stripping Buffer (Thermo Fisher Scientific Inc., Waltham, MA) per the manufacturer's instructions. Horseradish peroxidase-conjugated goat-anti-mouse IgG was used as the secondary antibody (Invitrogen Carlsbad, CA) and the membranes were developed with enhanced chemiluminescence (ECL) detection system (Amersham Life Sciences Inc.; Arlington Heights, IL.).
# Figure 2 Effect of compounds on ligand-mediated Stat3 and Stat1 phosphorylation. […] Cells were then stimulated with IL-6 (30 ng/ml) for 30 min. Protein extracts of cells were separated by SDS-PAGE, blotted and developed serially with antibodies to pStat3, total Stat3 and β-actin. Blots were stripped between each antibody probing. Band intensities were quantified by densitometry. The value of each pStat3 band was divided by its corresponding total Stat3 band intensity; the results were normalized to the DMSO-treated control value. This value was plotted as a function of the log compound concentration. The best-fitting curve was determined using 4-Parameter Logistic Model/Dose Response/XLfit 4.2, IDBS software and was used to calculate the IC50 value (Table 1). Each panel is representative of 3 or more experiments. In panel G, HepG2 cells were pretreated with DMSO alone or DMSO containing each of the compounds at a concentration of 300 µM for 60 min. Cells were then stimulated with IFN-γ (30 ng/ml) for 30 min. Protein extracts of cells were separated by SDS-PAGE and immunoblotted serially with antibodies to pStat1, total Stat1 and β-actin. Blots were stripped between each immunoblotting. The results shown are representative of 2 or more experiments.
# Stat3 = Stat3 (Homo sapiens, UniProt P40763); assay: Stat3/pY-peptide binding assay (SPR, BIAcore)
# Method: A control (Stat3 with DMSO but without compound) was run at the beginning and the end of each cycle (40 sample injections) to ensure that the integrity of the sensor chip was maintained throughout the cycle run. The average of the two controls was normalized to 100% and used to evaluate the effect of each compound on Stat3 binding. Responses were normalized by dividing the value at 2 min by the response obtained in the absence of compounds at 2 min and multiplying by 100.
# [3] = system: IL-6-mediated phosphorylation of Stat3; assay: Immunoblot of IL-6-mediated Stat3 phosphorylation in HepG2 cells; assay type: cell-based; conditions: Homo sapiens, compound 60 min, then IL-6 30 ng/ml 30 min, read-out: pStat3 IC50, inhibition of IL-6-mediated Stat3 phosphorylation
# Method: as §1
# Figure 2 Effect of compounds on ligand-mediated Stat3 and Stat1 phosphorylation. […] Cells were then stimulated with IL-6 (30 ng/ml) for 30 min. Protein extracts of cells were separated by SDS-PAGE, blotted and developed serially with antibodies to pStat3, total Stat3 and β-actin. Blots were stripped between each antibody probing. Band intensities were quantified by densitometry. […] The best-fitting curve was determined using 4-Parameter Logistic Model/Dose Response/XLfit 4.2, IDBS software and was used to calculate the IC50 value (Table 1). […]
# [4] = system: breast cancer cell lines tested; assay: Apoptosis assay, all breast cancer cell lines tested; assay type: cell-based, Human; conditions: any of the breast cancer cell lines tested; data not shown
# Method: Human breast carcinoma cell lines MDA-MB-468, MDA-MB-231, MBA-MD-435 and MCF7 were kindly provided by Dr. Powel H. Brown (Breast Cancer Center, Baylor College of Medicine). Breast cancer cell line, MDA-MB-453 was kindly provided by Dr. Shou Jiang (Breast Cancer Center, Baylor College of Medicine). All cell lines were grown in DMEM medium supplemented with 10% fetal bovine serum (FBS), 25,000 units penicillin G, 25,000 µg streptomycin, and 131.4 mg L-Glutamine and cultured in the incubator under the condition of 95% air, 5% CO2 at 37°C [33]. Cells were seeded at 2,500 cells/cm^2 into 12-well plates. At 80% confluency, cells were washed with PBS and supplemented with fresh medium containing compound or the topoisomerase I-inhibitor, camptothecin, at 0, 0.1, 0.3, 1, 3, 10, 30, 100, 300 µM. At 24 hours, treatment was terminated by removing the medium from each well. Cells were lysed with cell lysis buffer (600 µl for 30 minutes at 25°C). […] The percent maximum nucleosome level was calculated by dividing the nucleosome level by the maximum nucleosome level achieved in the assay and multiplying by 100. This value was plotted as a function of the log compound concentration and the best-fitting curve and EC50 value determined using 4-Parameter Logistic Model/Dose Response/XLfit 4.2, IDBS software.
# MDA-MB-468 = assay: Breast cancer cell line apoptosis assay (nucleosome ELISA); assay type: cell-based; conditions: Homo sapiens, 24 hr, read-out: EC50 apoptosis induction
# Method: (§2) Human breast carcinoma cell lines MDA-MB-468, MDA-MB-231, MBA-MD-435 and MCF7 were kindly provided by Dr. Powel H. Brown (Breast Cancer Center, Baylor College of Medicine). Breast cancer cell line, MDA-MB-453 was kindly provided by Dr. Shou Jiang (Breast Cancer Center, Baylor College of Medicine). All cell lines were grown in DMEM medium supplemented with 10% fetal bovine serum (FBS), 25,000 units penicillin G, 25,000 µg streptomycin, and 131.4 mg L-Glutamine and cultured in the incubator under the condition of 95% air, 5% CO2 at 37°C [33]. Cells were seeded at 2,500 cells/cm^2 into 12-well plates. At 80% confluency, cells were washed with PBS and supplemented with fresh medium containing compound or the topoisomerase I-inhibitor, camptothecin, at 0, 0.1, 0.3, 1, 3, 10, 30, 100, 300 µM. At 24 hours, treatment was terminated by removing the medium from each well. Cells were lysed with cell lysis buffer (600 µl for 30 minutes at 25°C). Cell lysate (200 µl) was centrifuged at 200 g for 10 minutes and 20 µl of each supernatant was assayed for nucleosomes using the Cell Death Detection ELISA (Roche Applied Science) as described by the manufacturer. The percent maximum nucleosome level was calculated by dividing the nucleosome level by the maximum nucleosome level achieved in the assay and multiplying by 100. This value was plotted as a function of the log compound concentration and the best-fitting curve and EC50 value determined using 4-Parameter Logistic Model/Dose Response/XLfit 4.2, IDBS software.
# (§3) Figure 5 Apoptosis induction of breast cancer cell lines by compounds; selective apoptosis of cell lines that are Stat3 dependent. MDA-MB-468 (panel A), MDA-MB-231 (panel B), MDA-MB-435 (panel C), MCF7 (panel D) and MDA-MB-453 (panel E) were seeded in 12-well plates, grown overnight then treated with the indicated compound for 24 hr. Cells were centrifuged and the supernatants assayed for nucleosome levels by ELISA. The percent maximum nucleosome level was calculated (nucleosome level ÷ maximum nucleosome level achieved in the assay ×100) and plotted as a function of the log compound concentration. The best-fitting curve was determined using 4-ParameterLogistic Model/Dose Response One Site/XLfit 4.2, IDBS software and was used to determine the EC50 value (Table 3).
# MDA-MB-435 = assay: as above; assay type: cell-based; conditions: Homo sapiens, 24 hr, read-out: EC50 apoptosis induction
# Method: as §2, §3
# MCF7 = assay: as above; assay type: cell-based; conditions: Homo sapiens, 24 hr, read-out: EC50 apoptosis induction
# Method: as §2, §3
# MDA-MB-231 = assay: as above; assay type: cell-based; conditions: Homo sapiens, 24 hr, read-out: EC50 apoptosis induction
# Method: as §2, §3
# MDA-MB-453 = assay: as above; assay type: cell-based; conditions: Homo sapiens, 24 hr, read-out: EC50 apoptosis induction
# Method: as §2, §3
# [5] = system: breast cancer cell lines with constitutive Stat3 activity—MDA-MB-468, MDA-MB-231 and MDA-MB-435; assay: Apoptosis assay, summary over the cell lines with constitutive Stat3 activity; assay type: cell-based; conditions: Homo sapiens
# Method: as §2, with “100.” for “100. This value was plotted as a function of the log compound concentration and the best-fitting curve and EC50 value determined using 4-Parameter Logistic Model/Dose Response/XLfit 4.2, IDBS software.”
# as §3, with “MDA-MB-468” for “Figure 5 Apoptosis induction of breast cancer cell lines by compounds; selective apoptosis of cell lines that are Stat3 dependent. MDA-MB-468”
# [6] = system: cell lines MDA-MB-453 and MCF7; assay: Apoptosis assay, summary over the cell lines without constitutive Stat3 activity; assay type: cell-based; conditions: Homo sapiens
# Method: as §2, with “100.” for “100. This value was plotted as a function of the log compound concentration and the best-fitting curve and EC50 value determined using 4-Parameter Logistic Model/Dose Response/XLfit 4.2, IDBS software.”
# as §3, with “MDA-MB-468” for “Figure 5 Apoptosis induction of breast cancer cell lines by compounds; selective apoptosis of cell lines that are Stat3 dependent. MDA-MB-468”
# [7] = 24 hr, read-out: EC50 apoptosis induction, range over three cell lines
# Stat3, sequence (P40763 whole entry, species assumed): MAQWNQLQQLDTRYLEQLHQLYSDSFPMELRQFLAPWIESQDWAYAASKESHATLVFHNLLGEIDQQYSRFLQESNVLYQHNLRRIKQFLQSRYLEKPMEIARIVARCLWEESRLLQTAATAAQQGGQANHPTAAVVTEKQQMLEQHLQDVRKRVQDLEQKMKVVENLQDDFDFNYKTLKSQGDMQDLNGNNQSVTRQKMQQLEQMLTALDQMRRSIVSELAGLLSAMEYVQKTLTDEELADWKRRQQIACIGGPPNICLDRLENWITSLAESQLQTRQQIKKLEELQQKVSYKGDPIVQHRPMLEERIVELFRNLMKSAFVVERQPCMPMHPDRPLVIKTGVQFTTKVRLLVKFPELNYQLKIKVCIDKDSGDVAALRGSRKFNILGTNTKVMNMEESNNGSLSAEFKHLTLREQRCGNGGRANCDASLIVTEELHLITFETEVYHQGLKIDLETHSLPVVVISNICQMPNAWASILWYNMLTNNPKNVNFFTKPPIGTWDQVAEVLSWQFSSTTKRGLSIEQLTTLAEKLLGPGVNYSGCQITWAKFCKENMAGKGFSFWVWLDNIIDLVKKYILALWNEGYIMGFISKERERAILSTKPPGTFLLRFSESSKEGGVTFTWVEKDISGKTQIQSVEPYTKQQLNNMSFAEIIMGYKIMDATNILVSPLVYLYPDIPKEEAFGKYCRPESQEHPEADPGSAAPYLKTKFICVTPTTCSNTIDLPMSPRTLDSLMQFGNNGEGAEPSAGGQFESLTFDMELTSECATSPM
SMILES,"IC50 ([1]; Mus musculus, compound 1 hour, then IL-6 200 ng/ml and IL-6sR 250 ng/ml 30 min, read-out: HTFM IC50, inhibition of IL-6-mediated Stat3 nuclear translocation)",Block of ligand-mediated nuclear translocation of GFP-Stat3α (in words) ([1]; preincubation with compound),Block of IFN-γ-stimulated Stat1 phosphorylation [2],IC50 (Stat3),IC50 [3],Apoptosis induction (in words) [4],EC50 (MDA-MB-468),EC50 (MDA-MB-435),EC50 (MCF7),EC50 (MDA-MB-231),EC50 (MDA-MB-453),"EC50 [5, 7]","EC50 ([5]; read-out: EC50 apoptosis induction, mean±SD over three cell lines)","EC50 ([6]; read-out: EC50 apoptosis induction, mean±SD over MDA-MB-453 and MCF7)","EC50 ([6]; concentrations up to 300 µM, read-out: EC50 apoptosis induction, MDA-MB-453 and MCF7)"
"CCN1C(=O)C(=Cc2ccc(-c3cc(C(=O)O)ccc3Cl)o2)C(=O)N(CC)C1=S [Cpd30-12, 4-chloro-3-{5-[(1,3-diethyl-4,6-dioxo-2-thioxotetrahydro-5(2H)-pyrimidinylidene)methyl]-2-furyl}benzoic acid]",> 300 µM,not,blocked Stat1 phosphorylation,114 µM,60 µM,,,,,,,,,,
"COC(=O)Cc1c(C)c2ccc(OCc3ccc(C(=O)OC)cc3)c(C)c2oc1=O [Cpd3-7, methyl 4-({[3-(2-methoxy-2-oxoethyl)-4,8-dimethyl-2-oxo-2H-chromen-7-yl]oxy}methyl)benzoate]",,,did not,,,neither Cpd3-2 nor Cpd3-7 induced apoptosis,,,,,,,,,
"O=C(O)CSc1cc(NS(=O)(=O)c2ccc(C(=O)O)cc2)c2ccccc2c1O [Cpd188, 4-[({3-[(carboxymethyl)thio]-4-hydroxy-1-naphthyl}amino)sulfonyl]benzoic acid]",,,did not,,,,0.73 µM,7.01 µM,17.2 µM,3.96 µM,15.5 µM,0.7 to 7 µM,3.9 ± 3.1 µM,16.4 ± 1.2 µM,
"CC[C@@]1(O)C(=O)OCc2c1cc1n(c2=O)Cc2cc3ccccc3nc2-1 [CAM, camptothecin, reference compound]",,,,,,,0.74 µM,1.64 µM,0.13 µM,1.62 µM,0.93 µM,,,,
"CCN1C(=O)C(=Cc2ccc(-c3ccc(C(=O)O)cc3)o2)SC1=S [Cpd30, 4-{5-[(3-ethyl-4-oxo-2-thioxo-1,3-thiazolidin-5-ylidene)methyl]-2-furyl}benzoic acid]",,,did not,,,,6.42 µM,16.3 µM,> 300 µM,92 µM,> 300 µM,6.4 to 92.2 µM,,,> 300 µM
